Data on one molecule can be found in BindingDB's records for doi:10.3109/14756366.2012.712516 (Dumlupinar University, 2013).

Each structure is given as a SMILES string.

Assay [1] addresses T1, Carbonic anhydrase 1 (Homo sapiens, UniProt P00915). Nature of the assay: Esterase Activity Assay. The conditions noted are these: pH 7.4. The procedure:
(§1) The enzymatic reaction, in a total volume of 3.0 mL, contained 1.4 mL of 0.05 M Tris-SO4 buffer (pH 7.4), 1 mL of 3 mM 4-nitrophenylacetate, 0.5 mL H2O and 0.1 mL enzyme solution.

The target of assay [2] is T2, Carbonic anhydrase 2 (Homo sapiens, UniProt P00918). In words: Esterase Activity Assay. Conditions: pH 7.4. The protocol:
as §1

The target of assay [3] is T1, Carbonic anhydrase 1. Nature of the assay: Hydratase Activity Assay.
Assay [4] has as its target T2, Carbonic anhydrase 2. In words: Hydratase Activity Assay.
For assay [5], the target named is T1, Carbonic anhydrase 1. In words: CA Activity Assay.
The target in assay [6] is T2, Carbonic anhydrase 2. Nature of the assay: CA Activity Assay.

T1 sequence (P00915 whole entry): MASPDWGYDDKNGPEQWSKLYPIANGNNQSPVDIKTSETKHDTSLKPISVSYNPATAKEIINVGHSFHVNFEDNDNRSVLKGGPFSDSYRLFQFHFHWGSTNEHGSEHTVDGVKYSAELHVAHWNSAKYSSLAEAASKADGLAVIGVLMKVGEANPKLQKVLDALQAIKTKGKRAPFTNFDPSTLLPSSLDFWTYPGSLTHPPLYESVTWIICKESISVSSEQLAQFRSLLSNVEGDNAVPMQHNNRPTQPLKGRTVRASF

`NS(=O)(=O)c1nnc(NC(=O)c2nn(-c3cccc([N+](=O)[O-])c3)c(-c3ccccc3)c2C(=O)c2ccccc2)s1` [N-[5-(aminosulfonyl)-1,3,4-thiadiazol-2-yl]-4-benzoyl-1-(3-nitrophenyl)-5-phenyl-1H-pyrazole-3-carboxamide (1)]: the IC50 was 1400 nM against Carbonic anhydrase 1 [1], 3000 nM on Carbonic anhydrase 2 [2], 1200 nM at Carbonic anhydrase 1 [3] and 400 nM at Carbonic anhydrase 2 [4]. Besides, the Ki at Carbonic anhydrase 1 [5] was 1400 nM; on Carbonic anhydrase 2 [6], 3000 nM.

Broadly, the IC50 is the point on the concentration scale where inhibition reaches its midpoint. For orientation: Ki means a measure of affinity in units of concentration, obtained from inhibition or displacement. A higher Ki goes with weaker binding.
